Source: PubChem BioAssay AID1963862 (Molecular Pharmacology Branch, DTP, NCI, 2024)

Test system: KRAS patient-derived spheroids with HUVEC/MSC, viability
Experiment: Anticancer human tumor 941728-121-R-J1-PDC patient-derived lung adenocarcinoma cell line growth inhibition [KRAS2]
Conditions: for IC50: curve of first compound; for viability, T/C: stronger effect = lower value; active = viability on the fitted dose curve at most 10% of control; inactive = the rest
How it was run: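 Combination screen of spheroid viability in tumor-cell co-cultures with endothelial (HUVEC) and mesenchymal stem cell stroma. Each agent was tested in half-log dilutions, topping at clinical Cmax or at 10 microM without a known Cmax.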

[1] = second compound 0.1 µM, first compound 0.0316 µM
[2] = second compound 0.1 µM, first compound 0.1 µM
[3] = second compound 0.1 µM, first compound 0.316 µM
[4] = second compound 0.1 µM, first compound 1 µM
[5] = second compound 0.1 µM, first compound 3.16 µM
[6] = second compound 0.1 µM, first compound 10 µM
[7] = second compound 0.316 µM, first compound 0.0316 µM
[8] = second compound 0.316 µM, first compound 0.1 µM
[9] = second compound 0.316 µM, first compound 0.316 µM
[10] = second compound 0.316 µM, first compound 1 µM
[11] = second compound 0.316 µM, first compound 3.16 µM
[12] = second compound 0.316 µM, first compound 10 µM
[13] = second compound 1 µM, first compound 0.0316 µM
[14] = second compound 1 µM, first compound 0.1 µM
[15] = second compound 1 µM, first compound 0.316 µM
[16] = second compound 1 µM, first compound 1 µM
[17] = second compound 1 µM, first compound 3.16 µM
[18] = second compound 1 µM, first compound 10 µM
[19] = second compound 3.16 µM, first compound 0.0316 µM
[20] = second compound 3.16 µM, first compound 0.1 µM
[21] = second compound 3.16 µM, first compound 0.316 µM
[22] = second compound 3.16 µM, first compound 1 µM
[23] = second compound 3.16 µM, first compound 3.16 µM
[24] = second compound 3.16 µM, first compound 10 µM
[25] = second compound 10 µM, first compound 0.0316 µM
[26] = second compound 10 µM, first compound 0.1 µM
[27] = second compound 10 µM, first compound 0.316 µM
[28] = second compound 10 µM, first compound 1 µM
[29] = second compound 10 µM, first compound 3.16 µM
[30] = second compound 10 µM, first compound 10 µM
[31] = second compound 0.1 µM, first compound 0.01 µM
[32] = second compound 0.316 µM, first compound 0.01 µM
[33] = second compound 1 µM, first compound 0.01 µM
[34] = second compound 3.16 µM, first compound 0.01 µM
[35] = second compound 10 µM, first compound 0.01 µM
[36] = second compound 0.1 µM, first compound 0.00316 µM
[37] = second compound 0.316 µM, first compound 0.00316 µM
[38] = second compound 1 µM, first compound 0.00316 µM
[39] = second compound 3.16 µM, first compound 0.00316 µM
[40] = second compound 10 µM, first compound 0.00316 µM
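Note: spheroids exposed to agents for seven days before readout.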

CC(C)NCC(C(=O)N1CCN(c2ncnc3c2C(C)CC3O)CC1)c1ccc(Cl)cc1 (stereo not given) + CC1OCC2(CCN(c3cnc(Sc4ccnc(N)c4Cl)c(N)n3)CC2)C1N
active: viability, T/C [12] 8.83% | viability, T/C [18] 4.1% | viability, T/C [23] 10.7% | viability, T/C [24] 3.56% | viability, T/C [29] 4.83% | viability, T/C [30] 1.91%
inactive: viability, T/C [1] 38.3% | viability, T/C [2] 40.1% | viability, T/C [3] 29.9% | viability, T/C [4] 24.9% | viability, T/C [5] 19.1% | viability, T/C [6] 10.4% | viability, T/C [7] 34% | viability, T/C [8] 31.9% | viability, T/C [9] 25.3% | viability, T/C [10] 20.9% | viability, T/C [11] 15.1% | viability, T/C [13] 26.2% | viability, T/C [14] 26.8% | viability, T/C [15] 23.7% | viability, T/C [16] 16.7% | viability, T/C [17] 12.8% | viability, T/C [19] 25.8% | viability, T/C [20] 22.1% | viability, T/C [21] 20.8% | viability, T/C [22] 14.3% | viability, T/C [25] 19.1% | viability, T/C [26] 17.9% | viability, T/C [27] 17.2% | viability, T/C [28] 11.2%
< 31.6 nM: IC50 (second compound 0.1 µM) | IC50 (second compound 0.316 µM) | IC50 (second compound 1 µM) | IC50 (second compound 3.16 µM) | IC50 (second compound 10 µM)

CC1(C)CCC(CN2CCN(c3ccc(C(=O)NS(=O)(=O)c4ccc(NCC5CCOCC5)c([N+](=O)[O-])c4)c(Oc4cnc5[nH]ccc5c4)c3)CC2)=C(c2ccc(Cl)cc2)C1 + CC1OCC2(CCN(c3cnc(Sc4ccnc(N)c4Cl)c(N)n3)CC2)C1N
active: viability, T/C [6] 2.32% | viability, T/C [12] 1.62% | viability, T/C [18] 2.94% | viability, T/C [23] 5.87% | viability, T/C [24] 1.91% | viability, T/C [29] 3.98% | viability, T/C [30] 0.4%
< 31.6 nM: IC50 (second compound 0.1 µM) | IC50 (second compound 0.316 µM) | IC50 (second compound 1 µM) | IC50 (second compound 3.16 µM) | IC50 (second compound 10 µM)
inactive: viability, T/C [1] 38.4% | viability, T/C [2] 30.5% | viability, T/C [3] 32.1% | viability, T/C [4] 31.2% | viability, T/C [5] 6.63% | viability, T/C [7] 32.1% | viability, T/C [8] 24.3% | viability, T/C [9] 29% | viability, T/C [10] 34.3% | viability, T/C [11] 5.9% | viability, T/C [13] 29% | viability, T/C [14] 26.9% | viability, T/C [15] 26.1% | viability, T/C [16] 27.3% | viability, T/C [17] 5.85% | viability, T/C [19] 28.4% | viability, T/C [20] 24.7% | viability, T/C [21] 23.7% | viability, T/C [22] 20.8% | viability, T/C [25] 20.1% | viability, T/C [26] 23.8% | viability, T/C [27] 23.2% | viability, T/C [28] 19.2%

CC1COCCN1c1cc(-c2ccnn2C)c2ccnc(-c3ccn[nH]3)c2n1 (stereo not given) + CC1OCC2(CCN(c3cnc(Sc4ccnc(N)c4Cl)c(N)n3)CC2)C1N
inactive: viability, T/C [31] 43.9% | viability, T/C [1] 28.7% | viability, T/C [2] 27.2% | viability, T/C [3] 26.4% | viability, T/C [4] 25.4% | viability, T/C [5] 28.2% | viability, T/C [32] 32.9% | viability, T/C [7] 30.4% | viability, T/C [8] 25.3% | viability, T/C [9] 23.1% | viability, T/C [10] 19.9% | viability, T/C [11] 21.6% | viability, T/C [33] 29.5% | viability, T/C [13] 26.9% | viability, T/C [14] 26.5% | viability, T/C [15] 22.3% | viability, T/C [16] 15.8% | viability, T/C [17] 15.8% | viability, T/C [34] 26.8% | viability, T/C [19] 25.3% | viability, T/C [20] 22.4% | viability, T/C [21] 18.8% | viability, T/C [22] 15.9% | viability, T/C [23] 13.7% | viability, T/C [35] 25.4% | viability, T/C [25] 22.9% | viability, T/C [26] 19.2% | viability, T/C [27] 14.4% | viability, T/C [28] 12.9% | viability, T/C [29] 10.9%
< 10 nM: IC50 (second compound 0.1 µM) | IC50 (second compound 0.316 µM) | IC50 (second compound 1 µM) | IC50 (second compound 3.16 µM) | IC50 (second compound 10 µM)

CCN1CCN(Cc2ccc(Nc3ncc(F)c(-c4cc(F)c5nc(C)n(C(C)C)c5c4)n3)nc2)CC1 + CC1OCC2(CCN(c3cnc(Sc4ccnc(N)c4Cl)c(N)n3)CC2)C1N
active: viability, T/C [28] 9.79%
< 3.16 nM: IC50 (second compound 0.1 µM) | IC50 (second compound 0.316 µM) | IC50 (second compound 1 µM) | IC50 (second compound 3.16 µM) | IC50 (second compound 10 µM)
inactive: viability, T/C [36] 47.5% | viability, T/C [31] 40.5% | viability, T/C [1] 36.2% | viability, T/C [2] 35.9% | viability, T/C [3] 37.5% | viability, T/C [4] 44.4% | viability, T/C [37] 35.3% | viability, T/C [32] 31.2% | viability, T/C [7] 30.5% | viability, T/C [8] 31.7% | viability, T/C [9] 24.3% | viability, T/C [10] 26% | viability, T/C [38] 32.5% | viability, T/C [33] 29.4% | viability, T/C [13] 29.1% | viability, T/C [14] 28.5% | viability, T/C [15] 23.1% | viability, T/C [16] 17.5% | viability, T/C [39] 25.8% | viability, T/C [34] 25.4% | viability, T/C [19] 24.2% | viability, T/C [20] 24.4% | viability, T/C [21] 16.5% | viability, T/C [22] 13.5% | viability, T/C [40] 22.9% | viability, T/C [35] 22.7% | viability, T/C [25] 19.6% | viability, T/C [26] 15.6% | viability, T/C [27] 9.09%

CCNC(=O)CC1N=C(c2ccc(Cl)cc2)c2cc(OC)ccc2-n2c(C)nnc21 (stereo not given) + CC1OCC2(CCN(c3cnc(Sc4ccnc(N)c4Cl)c(N)n3)CC2)C1N
< 31.6 nM: IC50 (second compound 0.1 µM) | IC50 (second compound 0.316 µM) | IC50 (second compound 1 µM) | IC50 (second compound 3.16 µM) | IC50 (second compound 10 µM)
inactive: viability, T/C [1] 45.2% | viability, T/C [2] 44% | viability, T/C [3] 31.5% | viability, T/C [4] 24.1% | viability, T/C [5] 21% | viability, T/C [6] 22.4% | viability, T/C [7] 37.2% | viability, T/C [8] 32.5% | viability, T/C [9] 25.5% | viability, T/C [10] 17.2% | viability, T/C [11] 14.8% | viability, T/C [12] 16.2% | viability, T/C [13] 32.3% | viability, T/C [14] 27.5% | viability, T/C [15] 30.4% | viability, T/C [16] 13.2% | viability, T/C [17] 10.3% | viability, T/C [19] 25.7% | viability, T/C [20] 20.9% | viability, T/C [21] 17.8% | viability, T/C [22] 10.3% | viability, T/C [25] 22.3% | viability, T/C [26] 19.1% | viability, T/C [27] 12%
active: viability, T/C [18] 8.97% | viability, T/C [23] 8.12% | viability, T/C [24] 6.43% | viability, T/C [28] 6.42% | viability, T/C [29] 4.77% | viability, T/C [30] 4.55%

Cn1ncnc1[C@H]1c2n[nH]c(=O)c3cc(F)cc(c23)N[C@@H]1c1ccc(F)cc1 + CC1OCC2(CCN(c3cnc(Sc4ccnc(N)c4Cl)c(N)n3)CC2)C1N
< 0.316 nM: IC50 (second compound 0.316 µM) | IC50 (second compound 1 µM) | IC50 (second compound 3.16 µM) | IC50 (second compound 10 µM)
0.334 nM: IC50 (second compound 0.1 µM)
inactive: viability, T/C (second compound 0.1 µM, first compound 0.000316 µM) 49.5% | viability, T/C (second compound 0.1 µM, first compound 0.001 µM) 50% | viability, T/C [36] 43.2% | viability, T/C [31] 44.7% | viability, T/C [1] 44.2% | viability, T/C [2] 46.5% | viability, T/C (second compound 0.316 µM, first compound 0.000316 µM) 37.7% | viability, T/C (second compound 0.316 µM, first compound 0.001 µM) 28.5% | viability, T/C [37] 26.1% | viability, T/C [32] 32.7% | viability, T/C [7] 28.1% | viability, T/C [8] 28.1% | viability, T/C (second compound 1 µM, first compound 0.000316 µM) 28.7% | viability, T/C (second compound 1 µM, first compound 0.001 µM) 25.9% | viability, T/C [38] 22.2% | viability, T/C [33] 20.6% | viability, T/C [13] 19.2% | viability, T/C [14] 26.4% | viability, T/C (second compound 3.16 µM, first compound 0.000316 µM) 26.6% | viability, T/C (second compound 3.16 µM, first compound 0.001 µM) 24.8% | viability, T/C [39] 25.3% | viability, T/C [34] 20% | viability, T/C [19] 14.4% | viability, T/C [20] 19.3% | viability, T/C (second compound 10 µM, first compound 0.000316 µM) 23.8% | viability, T/C (second compound 10 µM, first compound 0.001 µM) 21.5% | viability, T/C [40] 19.9% | viability, T/C [35] 18.9% | viability, T/C [25] 18.3% | viability, T/C [26] 14.7%
